System: osteoclast differentiation
Test: Inhibitory effects on osteoclast differentiation (co-culture of bone marrow cells with osteoblast, TRAP staining)
Format: cell-based, mice
Settings: Mus musculus, Osteoclast, 168 h, read-out: % inhibitory activity on osteoclastogenesis
Procedure: The effect of benzamidine derivatives of the present invention on osteoclast proliferation and differentiation process was evaluated via co-culture with osteoblast.
Tibia and Femora were aseptically ectomized from male ddY mice of 6-8 weeks to harvest bone marrow cells by using a syringe (21G, Korea Green Cross).
The bone marrow cells were suspended in 5 mL α-MEM medium (Gibco BRL Co.) containing sodium bicarbonate (2.0 g/L), streptomycin (100 mg/L) and penicillin ([…]). The harvested cells were centrifuged at 600×g for 5 mins to collect the whole quantity. To remove the red blood cells within bone marrow cells, 3 mL of Tris HCl (0.83% NH4Cl, pH7.5) was added and well mixed. After centrifuging above cells, the numbers of bone marrow cells were counted and then, the bone marrow cells were immediately used for co-culture system with osteoblast.
The calvaria were aseptically ectomized from neonate ICR mice of 1˜2 days, washed with PBS solution and incubated with a mixture of enzyme solution (0.2% collagenase and 0.1% dispase) at 37° C. gentle shaker. This procedure was sequentially repeated (10, 10, 10, 20, 20 and 20 mins), and then the calvaria cells having the characteristics of osteoblast mostly released from III-VI digestion groups were collected and washed with the medium (serum-free α-MEM). The washed cells were cultivated in α-MEM medium containing 10% FBS for 2˜3 days. After subculturing, these cells were used for this experiment, and diluted to reach the concentration of 1×10^6 cell/mL for storage at −70° C.
Benzamidine derivatives of the present invention were dissolved in a sterile distilled water or ethanol to make desired concentrations following dilution. The final volume of specimen added to the medium was determined at the ratio of 1:1000.
Bone marrow cells prepared, in the above and osteoblast from calvaria were co-cultured for osteoclast differentiation. Both bone marrow cells (25,000 cells/cm^2) and osteoblast (10,000 cells/cm^2) were plated on a 96 well plate in α-MEM medium containing FBS with specimen, and then cultured with test materials for 7 days. Differentiation factors, such as dexamethasone (10^−7M) and vitamin D3 (10^−8M), were also continuously added to the medium from the first day of cultivation. The medium was changed with fresh media containing a mixture of specimens and differentiation factors every 2˜3 day.
TRAP was used as a marker to measure osteoclast in consideration of its characteristics showing a positive reaction to TRAP staining solution. TRAP staining solution was prepared in a manner that 5 mg of naphtol AS-MS phosphate (sigma N-4875), a substrate and 25 mg of coloring agent (Fast Red Violet LB salt) were dissolved in N,N-dimethylformamide (about 0.5 mL), 0.1N NaHCO3 buffer solution (50 mL) containing 50 mM tartaric acid was added, and the reaction mixture was stored at refrigerator prior to use.
After culturing the cells for 7 days, the medium was removed from the wells, the cells were once washed with PBS solution and fixed to PBS containing 10% formalin for 2˜5 mins. The cells were fixed again in a mixed solution of ethanol and acetone (1/1) for about 1 min, and dried off. The cells were further treated by TRAP staining solution for 15 mins and washed with PBS. The experimental results were measured by counting the number of osteoclasts with 3 or more nuclei showing TRAP-positive reaction under a microscopic examination. Each of tests was confirmed over three times for gaining more reliable data.
As shown in the following table 7, the inhibitory effect of each experimental group on the differentiation of osteoclast versus controls was expressed by inhibitory percentage value.

**Q.** Which inhibition at 1 µM does the source give for CN(CCN1CCOCC1)c1nc(-c2ccc(OCCCCCOc3ccc(C(=N)NO)cc3)cc2)c(C2CCCC2)s1 [Example 153, N-hydroxy-4-(5-[4-(5-cyclopentyl-2-[methyl-(2-morpholinoethyl)amino]-1,3-thiazol-4-yl)phenoxy]pentoxy)-benzamidine] here?
**A.** 96.4%

Same assay, conditions: Mus musculus, Osteoclast, 168 h; 1 m; co-culture of bone marrow cells and osteoblast, 7 days, TRAP-positive osteoclasts versus controls; read-out: % inhibitory activity on osteoclastogenesis

**Q.** CC(C)c1sc(NCc2cccnc2)nc1-c1ccc(OCCCCCOc2ccc(C(=N)NO)cc2)cc1 [Example 114, N-hydroxy-4-(5-[4-(5-isopropyl-2-[(pyridin-3-yl-methyl)amino]-1,3-thiazol-4-yl)phenoxy]pentoxy)-benzamidine] was tested. Which inhibition at 1 µM did it give?
**A.** 50.9%

**Q.** Which inhibition at 1 µM does the source give for CNc1nc(-c2ccc(OCCCCCOc3ccc(C(=N)NO)cc3)cc2)cs1 [Example 116, N-hydroxy-4-(5-[4-(2-methylamino-1,3-thiazol-4-yl)phenoxy]pentoxy)-benzamidine] here?
**A.** 51.3%

**Q.** Which inhibition at 1 µM does the source give for COCCN(CCOC)c1nc(-c2ccc(OCCCCCOc3ccc(C(=N)NO)cc3)cc2)c(C)s1 [Example 122, N-hydroxy-4-(5-[4-(2-(bis-(2-methoxyethyl)-amino)-5-methyl-1,3-thiazol-4-yl)phenoxy]pentoxy)-benzamidine] here?
**A.** 55.8%

**Q.** For Cc1sc(N(C)CCN2CCOCC2)nc1-c1ccc(OCCCCCOc2ccc(C(=N)NO)cc2)cc1 [Example 123, N-hydroxy-4-(5-[4-(5-methyl-2-(methyl-(2-morpholinoethyl)-amino)-1,3-thiazol-4-yl)phenoxy]pentoxy)-benzamidine], which inhibition at 1 µM is on record?
**A.** 26.3%

**Q.** Which inhibition at 1 µM does the source give for CCN(Cc1ccccc1)c1nc(-c2ccc(OCCCCCOc3ccc(C(=N)NO)cc3)cc2)c(C)s1 [Example 127, N-hydroxy-4-(5-[4-(2-(benzyl-ethyl-amino)-5-methyl-1,3-thiazol-4-yl)phenoxy]pentoxy)-benzamidine] here?
**A.** 41.5%

**Q.** Which inhibition at 1 µM does the source give for Cc1sc(N(CCO)CCO)nc1-c1ccc(OCCCCCOc2ccc(C(=N)NO)cc2)cc1 [Example 128, N-hydroxy-4-(5-[4-(2-(bis-(2-hydroxyethyl)-amino)-5-methyl-1,3-thiazol-4-yl)phenoxy]pentoxy)-benzamidine] here?
**A.** 75.5%

**Q.** For CCc1sc(N(C)CCN2CCOCC2)nc1-c1ccc(OCCCCCOc2ccc(C(=N)NO)cc2)cc1 [Example 131, N-hydroxy-4-(5-[4-(5-ethyl-2-(methyl-(2-morpholinoethyl)-amino)-1,3-thiazol-4-yl)phenoxy]pentoxy)-benzamidine], which inhibition at 1 µM is on record?
**A.** 69%

**Q.** For CCc1sc(N(CC)Cc2ccccc2)nc1-c1ccc(OCCCCCOc2ccc(C(=N)NO)cc2)cc1 [Example 135, N-hydroxy-4-(5-[4-(2-(benzyl-ethyl-amino)-5-ethyl-1,3-thiazol-4-yl)phenoxy]pentoxy)-benzamidine], which inhibition at 1 µM is on record?
**A.** 48.6%

**Q.** How did the inhibition at 1 µM turn out when CC(C)c1sc(N(C)CCO)nc1-c1ccc(OCCCCCOc2ccc(C(=N)NO)cc2)cc1 [Example 140, N-hydroxy-4-(5-[4-(2-((2-hydroxyethyl)-methyl-amino)-5-isopropyl-1,3-thiazol-4-yl)phenoxy]pentoxy)-benzamidine] was run?
**A.** 18.9%

**Q.** Which inhibition at 1 µM does the source give for CCS(=O)(=O)N(C)c1nc(-c2ccc(OCCCCCOc3ccc(C(=N)NO)cc3)cc2)c(C(C)C)s1 [Example 142, N-hydroxy-4-(5-[4-(2-(ethanesulfonyl-methyl-amino)-5-isopropyl-1,3-thiazol-4-yl)phenoxy]pentoxy)-benzamidine] here?
**A.** 54.1%

**Q.** With CCCCc1sc(N(C)CCO)nc1-c1ccc(OCCCCCOc2ccc(C(=N)NO)cc2)cc1 [Example 143, N-hydroxy-4-(5-[4-(5-butyl-2-((2-hydroxyethyl)-methyl-amino)-1,3-thiazol-4-yl)phenoxy]pentoxy)-benzamidine] as the compound, how does the inhibition at 1 µM read?
**A.** 69.5%

**Q.** How did the inhibition at 1 µM turn out when CCCCc1sc(N(C)CCN2CCOCC2)nc1-c1ccc(OCCCCCOc2ccc(C(=N)NO)cc2)cc1 [Example 144, N-hydroxy-4-(5-[4-(5-butyl-2-(methyl-(2-morpholinoethyl)amino)-1,3-thiazol-4-yl)phenoxy]pentoxy)-benzamidine] was run?
**A.** 94.4%

**Q.** For CN(CCN1CCOCC1)c1nc(-c2ccc(OCCCCCOc3ccc(C(=N)NO)cc3)cc2)c(CC2CCCC2)s1 [Example 148, N-hydroxy-4-(5-[4-(5-cyclopentylmethyl-2-(methyl-(2-morpholinoethyl)amino)-1,3-thiazol-4-yl)phenoxy]pentoxy)-benzamidine], which inhibition at 1 µM is on record?
**A.** 90.1%

**Q.** With CCCN(CCC)c1nc(-c2ccc(OCCCCCOc3ccc(C(=N)NO)cc3)cc2)c(CC2CCCC2)s1 [Example 149, N-hydroxy-4-(5-[4-(5-cyclopentylmethyl-2-dipropylamino-1,3-thiazol-4-yl)phenoxy]pentoxy)-benzamidine] as the compound, how does the inhibition at 1 µM read?
**A.** 79.2%

**Q.** For CCCCc1sc(N(CC)CC)nc1-c1ccc(OCCCCCOc2ccc(C(=N)NO)cc2)cc1 [Example 150, N-hydroxy-4-(5-[4-(5-butyl-2-diethylamino-1,3-thiazol-4-yl)phenoxy]pentoxy)-benzamidine], which inhibition at 1 µM is on record?
**A.** 95.4%

**Q.** CC(C)Cc1sc(N(C)CCN2CCOCC2)nc1-c1ccc(OCCCCCOc2ccc(C(=N)NO)cc2)cc1 [Example 154, N-hydroxy-4-(5-[4-(5-isobutyl-2-[methyl-(2-morpholinoethyl)amino]-1,3-thiazol-4-yl)phenoxy]pentoxy)-benzamidine] was tested. Which inhibition at 1 µM did it give?
**A.** 9.3%

**Q.** With CCN(CC)c1nc(-c2ccc(OCCCCCOc3ccc(C(=N)NO)cc3)cc2)c(C2CCCC2)s1 [Example 156, N-hydroxy-4-(5-[4-(5-cyclopentyl-2-diethylamino-1,3-thiazol-4-yl)phenoxy]pentoxy)-benzamidine] as the compound, how does the inhibition at 1 µM read?
**A.** 15.6%

**Q.** Which inhibition at 1 µM does the source give for CCCN(CCC)c1nc(-c2ccc(OCCCCCOc3ccc(C(=N)NO)cc3)cc2)c(C(C)C)s1 [Example 157, N-hydroxy-4-(5-[4-(5-isopropyl-2-dipropylamino-1,3-thiazol-4-yl)phenoxy]pentoxy)-benzamidine] here?
**A.** 92.3%

**Q.** Which inhibition at 1 µM does the source give for CCN(CC)c1nc(-c2ccc(OCCCCCOc3ccc(C(=N)NO)cc3)cc2)c(CC2CCCC2)s1 [Example 160, N-hydroxy-4-(5-[4-(5-cyclopentylmethyl-2-diethylamino-1,3-thiazol-4-yl)phenoxy]pentoxy)-benzamidine] here?
**A.** 83.7%

**Q.** How did the inhibition at 1 µM turn out when CC(C)c1sc(N(C)C)nc1-c1ccc(OCCCCCOc2ccc(C(=N)NO)cc2)cc1 [Example 161, N-hydroxy-4-(5-[4-(5-isopropyl-2-dimethylamino-1,3-thiazol-4-yl)phenoxy]pentoxy)-benzamidine] was run?
**A.** 89.1%

**Q.** How did the inhibition at 1 µM turn out when CCN(CC)c1nc(-c2ccc(OCCCCCOc3ccc(C(=N)NO)cc3)cc2)c(C(C)C)s1 [Example 162, N-hydroxy-4-(5-[4-(5-isopropyl-2-diethylamino-1,3-thiazol-4-yl)phenoxy]pentoxy)-benzamidine] was run?
**A.** 87.4%

**Q.** CN(C)c1nc(-c2ccc(OCCCCCOc3ccc(C(=N)NO)cc3)cc2)c(CC2CCCC2)s1 [Example 163, N-hydroxy-4-(5-[4-(5-cyclopentylmethyl-2-dimethylamino-1,3-thiazol-4-yl)phenoxy]pentoxy)-benzamidine] was tested. Which inhibition at 1 µM did it give?
**A.** 88.1%

**Q.** How did the inhibition at 1 µM turn out when CN1CCN(c2nc(-c3ccc(OCCCCCOc4ccc(C(=N)NO)cc4)cc3)c(CC3CCCC3)s2)CC1 [Example 170, N-hydroxy-4-(5-(4-[5-cyclopentylmethyl-2-(4-methylpiperazino)-1,3-thiazol-4-yl]phenoxy)-pentoxy)-benzamidine] was run?
**A.** 93.9%

Same assay, conditions: co-culture of bone marrow cells and osteoblast, 7 days, TRAP-positive osteoclasts versus controls

**Q.** For CCc1sc(NCc2cccnc2)nc1-c1ccc(OCCCCCOc2ccc(C(=N)NO)cc2)cc1 [Example 117], which “% inhibitory activity on osteoclastogenesis” value (shortened to “% inhibitory activity”) is on record?
**A.** 2.7%

**Q.** How did the “% inhibitory activity” value turn out when CCc1sc(N(Cc2cccnc2)Cc2cccnc2)nc1-c1ccc(OCCCCCOc2ccc(C(=N)NO)cc2)cc1 [Example 137] was run?
**A.** 62.7%

**Q.** For Cc1sc(N2CCCCC2)nc1-c1ccc(OCCCCCOc2ccc(C(=N)NO)cc2)cc1 [Example 164, N-hydroxy-4-(5-[4-(5-methyl-2-piperdino-1,3-thiazol-4-yl)phenoxy]pentoxy)-benzamidine], which “% inhibitory activity” value is on record?
**A.** 67.4%

From patent publication US8178688B2, “Benzamidine derivatives, process for the preparation thereof and pharmaceutical composition comprising the same” (Dong Wha Pharmaceutical Co., Ltd., priority 2004, dated 2012)
